Target: recombinant IL4I1 (Homo sapiens (Human), UniProt Q96RQ9)
Assay: IL4I1 Enzymatic Assay (Amplex Red/HRP coupled fluorescence detection of H2O2)
Assay type: biochemical
Settings: 240 min; recombinant IL4I1, four-hour pre-incubation with compound
How it was run: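 Ten-point, 1:3 compound titrations were fitted by four-parameter sigmoidal regression to give EC50. Resorufin fluorescence (544/590 nm) from Amplex Red/HRP-coupled H2O2 detection was read 120 min after adding 1 mM each aromatic amino acid to 1 nM IL4I1, following a 4 h compound pre-incubation in pH 7.0 Hepes buffer.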

Chain of recombinant IL4I1 (Q96RQ9 22-567): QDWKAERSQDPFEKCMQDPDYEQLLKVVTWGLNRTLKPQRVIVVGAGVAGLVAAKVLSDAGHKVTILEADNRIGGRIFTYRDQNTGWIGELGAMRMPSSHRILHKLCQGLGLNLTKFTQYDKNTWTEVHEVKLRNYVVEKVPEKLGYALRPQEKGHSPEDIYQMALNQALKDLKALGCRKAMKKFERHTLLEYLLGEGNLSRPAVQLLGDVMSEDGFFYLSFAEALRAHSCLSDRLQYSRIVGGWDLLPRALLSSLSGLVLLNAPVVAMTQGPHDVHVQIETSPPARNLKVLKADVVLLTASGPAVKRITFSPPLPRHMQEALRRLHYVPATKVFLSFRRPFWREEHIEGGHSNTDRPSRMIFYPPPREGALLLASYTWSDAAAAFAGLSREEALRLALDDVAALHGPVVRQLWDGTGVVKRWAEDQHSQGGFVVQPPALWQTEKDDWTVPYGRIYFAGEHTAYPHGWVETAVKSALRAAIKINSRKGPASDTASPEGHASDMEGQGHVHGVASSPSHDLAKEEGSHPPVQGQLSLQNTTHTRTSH

Row | SMILES | EC50 [nM]
1 | O=c1c(=O)n(C23CC(F)(C2)C3)ccn1Cc1cc(-c2cccnc2)on1 [Example 211, 1-(3-fluorobicyclo[1.1.1]pentan-1-yl)-4-((5-(pyridin-3-yl)isoxazol-3-yl)methyl)-1,4-dihydropyrazine-2,3-dione] | 61
2 | O=c1c(=O)n(C23CC(F)(C2)C3)ccn1Cc1ccc(-c2cncs2)nn1 [Example 213, 1-(3-fluorobicyclo[1.1.1]pentan-1-yl)-4-((6-(thiazol-5-yl)pyridazin-3-yl)methyl)-1,4-dihydropyrazine-2,3-dione] | 29
3 | O=c1c(=O)n(C23CC(F)(C2)C3)ccn1Cc1ccc(-c2cccnc2)nn1 [Example 215, 1-(3-fluorobicyclo[1.1.1]pentan-1-yl)-4-((6-(pyridin-3-yl)pyridazin-3-yl)methyl)-1,4-dihydropyrazine-2,3-dione] | 57
4 | O=c1c(=O)n(C2(CF)CC2)ccn1Cc1ccc(-n2nccn2)cn1 [Example 216, 1-((5-(2H-1,2,3-triazol-2-yl)pyridin-2-yl)methyl)-4-(1-(fluoromethyl)cyclopropyl)-1,4-dihydropyrazine-2,3-dione] | 60
5 | O=c1c(=O)n(C23CC(F)(C2)C3)ccn1Cc1ccc(-n2nccn2)cn1 [Example 217, 1-((5-(2H-1,2,3-triazol-2-yl)pyridin-2-yl)methyl)-4-(3-fluorobicyclo[1.1.1]pentan-1-yl)-1,4-dihydropyrazine-2,3-dione] | 42
6 | CC1(n2ccn(Cc3cc(-c4cccnc4)no3)c(=O)c2=O)CC1 [Example 221, 1-(1-methylcyclopropyl)-4-((3-(pyridin-3-yl)isoxazol-5-yl)methyl)-1,4-dihydropyrazine-2,3-dione] | 14
7 | N#CC1(n2ccn(Cc3cc(-c4cccnc4)no3)c(=O)c2=O)CC1 [Example 222, 1-(2,3-dioxo-4-((3-(pyridin-3-yl)isoxazol-5-yl)methyl)-3,4-dihydropyrazin-1(2H)-yl)cyclopropane-1-carbonitrile] | 316
8 | O=c1c(=O)n(C23CC(F)(C2)C3)ccn1Cc1cc(-c2cccnc2)no1 [Example 224, 1-(3-fluorobicyclo[1.1.1]pentan-1-yl)-4-((3-(pyridin-3-yl)isoxazol-5-yl)methyl)-1,4-dihydropyrazine-2,3-dione] | 101
9 | O=c1c(=O)n(C2(CF)CC2)ccn1Cc1cc(-c2ccccn2)no1 [Example 225, 1-(1-(fluoromethyl)cyclopropyl)-4-((3-(pyridin-2-yl)isoxazol-5-yl)methyl)-1,4-dihydropyrazine-2,3-dione] | 41
10 | O=C1C(=O)N(C23CC(F)(C2)C3)CCN1Cc1ccc(-c2ccccn2)nn1 [Example 226] | 78
11 | O=C1C(=O)N(C23CC(F)(C2)C3)CCN1Cc1ccc(-c2ccccc2F)nn1 [Example 228, 1-(3-fluorobicyclo[1.1.1]pentan-1-yl)-4-((6-(2-fluorophenyl)pyridazin-3-yl)methyl)piperazine-2,3-dione] | 23
12 | O=c1c(=O)n(C23CC(F)(C2)C3)ccn1Cc1ccc(-n2ccnn2)nc1 [Example 230, 1-((6-(1H-1,2,3-triazol-1-yl)pyridin-3-yl)methyl)-4-(3-fluorobicyclo[1.1.1]pentan-1-yl)-1,4-dihydropyrazine-2,3-dione] | 91
13 | O=c1c(=O)n(C2(CF)CC2)ccn1Cc1ccc(-n2cccn2)nc1 [Example 231, 1-((6-(1H-pyrazol-1-yl)pyridin-3-yl)methyl)-4-(1-(fluoromethyl)cyclopropyl)-1,4-dihydropyrazine-2,3-dione] | 22
14 | O=C1C(=O)N(C23CC(F)(C2)C3)CCN1Cc1cc(-c2ccccn2)no1 [Example 232, 1-(3-fluorobicyclo[1.1.1]pentan-1-yl)-4-((3-(pyridin-2-yl)isoxazol-5-yl)methyl)piperazine-2,3-dione] | 82
15 | O=c1c(=O)n(C2(CF)CC2)ccn1Cc1ccc(-c2nccs2)nn1 [Example 233, 1-(1-(fluoromethyl)cyclopropyl)-4-((6-(thiazol-2-yl)pyridazin-3-yl)methyl)-1,4-dihydropyrazine-2,3-dione] | 54
16 | O=C1C(=O)N(C23CC(F)(C2)C3)CCN1Cc1ccc(-c2nccs2)nn1 [Example 234, 1-(3-fluorobicyclo[1.1.1]pentan-1-yl)-4-((6-(thiazol-2-yl)pyridazin-3-yl)methyl)piperazine-2,3-dione] | 40
17 | O=C1C(=O)N(C23CC(F)(C2)C3)CCN1Cc1ccc(-n2ccnn2)nc1 [Example 236, 1-((6-(1H-1,2,3-triazol-1-yl)pyridin-3-yl)methyl)-4-(3-fluorobicyclo[1.1.1]pentan-1-yl)piperazine-2,3-dione] | 533

Further compounds by falling EC50, results first:

Row | EC50 [nM] | SMILES
18 | 346 | O=C1C(=O)N(C23CC(F)(C2)C3)CCN1Cc1ccc(-n2cccn2)nc1 [Example 237, 1-((6-(1H-pyrazol-1-yl)pyridin-3-yl)methyl)-4-(3-fluorobicyclo[1.1.1]pentan-1-yl)piperazine-2,3-dione]
19 | 69 | O=c1c(=O)n(C2(CF)CC2)ccn1Cc1ccc(-c2cccnc2)nn1 [Example 227, 1-(1-(fluoromethyl)cyclopropyl)-4-((6-(pyridin-3-yl)pyridazin-3-yl)methyl)-1,4-dihydropyrazine-2,3-dione]
20 | 59 | O=c1c(=O)n(C23CC(F)(C2)C3)ccn1Cc1ccc(-n2cccn2)cn1 [Example 219, 1-((5-(1H-pyrazol-1-yl)pyridin-2-yl)methyl)-4-(3-fluorobicyclo[1.1.1]pentan-1-yl)-1,4-dihydropyrazine-2,3-dione]
21 | 56 | O=c1c(=O)n(C23CC(F)(C2)C3)ccn1Cc1ccc(-c2ccccn2)nn1 [Example 214, 1-(3-fluorobicyclo[1.1.1]pentan-1-yl)-4-((6-(pyridin-2-yl)pyridazin-3-yl)methyl)-1,4-dihydropyrazine-2,3-dione]
22 | 56 | O=c1c(=O)n(C2(CF)CC2)ccn1Cc1ccc(-n2cccn2)cn1 [Example 218, 1-((5-(1H-pyrazol-1-yl)pyridin-2-yl)methyl)-4-(1-(fluoromethyl)cyclopropyl)-1,4-dihydropyrazine-2,3-dione]
23 | 54 | O=c1c(=O)n(C23CC(F)(C2)C3)ccn1Cc1ccc(-c2ccccn2)cn1 [Example 229, 1-([2,3′-bipyridin]-6′-ylmethyl)-4-(3-fluorobicyclo[1.1.1]pentan-1-yl)-1,4-dihydropyrazine-2,3-dione]
24 | 50 | O=c1c(=O)n(C23CC(F)(C2)C3)ccn1Cc1ccc(-n2cccn2)nc1 [Example 220, 1-((6-(1H-pyrazol-1-yl)pyridin-3-yl)methyl)-4-(3-fluorobicyclo[1.1.1]pentan-1-yl)-1,4-dihydropyrazine-2,3-dione]
25 | 18 | O=c1c(=O)n(C2(CF)CC2)ccn1Cc1ccc(-n2ccnn2)nc1 [Example 235, 1-((6-(1H-1,2,3-triazol-1-yl)pyridin-3-yl)methyl)-4-(1-(fluoromethyl)cyclopropyl)-1,4-dihydropyrazine-2,3-dione]
26 | 10 | O=c1c(=O)n(C23CC(C2)C3)ccn1Cc1cc(-c2cccnc2)on1 [Example 212, 1-(bicyclo[1.1.1]pentan-1-yl)-4-((5-(pyridin-3-yl)isoxazol-3-yl)methyl)-1,4-dihydropyrazine-2,3-dione]
27 | 10 | O=c1c(=O)n(C23CC(C2)C3)ccn1Cc1cc(-c2cccnc2)no1 [Example 223, 1-(bicyclo[1.1.1]pentan-1-yl)-4-((3-(pyridin-3-yl)isoxazol-5-yl)methyl)-1,4-dihydropyrazine-2,3-dione]
